Reference: patent US9693556B2, “Herbicidal pyridazinone derivatives” (SYNGENTA LIMITED, priority 2011, dated 2017)

How the values were obtained:
Type in all cases: in vivo
Setaria faberi (SETFA) [1] = assay: Post-emergence herbicidal glasshouse test on Setaria faberi; conditions: post-emergence; 1000 g/h; evaluated after 13 days
Summary of the method: (§1)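 Plants sprayed 1 day (pre-emergence) or 8 days (post-emergence) after sowing with compound at 1000 g/h in acetone/water 50:50 with 0.5% Tween 20; glasshouse 24/16° C, 14 h light, 65% humidity. Damage assessed after 13 days, scored 1–5 (5 = 80-100%, 1 = 0-19%).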

Solanum nigrum (SOLNI) [2] = assay: Pre-emergence herbicidal glasshouse test on Solanum nigrum; conditions: pre-emergence; 1000 g/h; evaluated after 13 days
Summary of the method: as §1

Solanum nigrum (SOLNI) [3] = assay: Post-emergence herbicidal glasshouse test on Solanum nigrum; conditions: post-emergence; 1000 g/h; evaluated after 13 days
Summary of the method: as §1

[4] = system: Alopecurus myosuroides (ALOMY); assay: Pre-emergence herbicidal glasshouse test on Alopecurus myosuroides; conditions: pre-emergence; 1000 g/h; evaluated after 13 days
Summary of the method: as §1

[5] = system: Ipomoea hederacea (IPOHE); assay: Pre-emergence herbicidal glasshouse test on Ipomoea hederacea; conditions: pre-emergence; 1000 g/h; evaluated after 13 days
Summary of the method: as §1

[6] = system: Amaranthus retoflexus (AMARE); assay: Pre-emergence herbicidal glasshouse test on Amaranthus retoflexus; conditions: pre-emergence; 1000 g/h; evaluated after 13 days
Summary of the method: as §1

[7] = system: Echinochloa crus-galli (ECHCG); assay: Post-emergence herbicidal glasshouse test on Echinochloa crus-galli; conditions: post-emergence; 1000 g/h; evaluated after 13 days
Summary of the method: as §1

[8] = system: Amaranthus retoflexus (AMARE); assay: Post-emergence herbicidal glasshouse test on Amaranthus retoflexus; conditions: post-emergence; 1000 g/h; evaluated after 13 days
Summary of the method: as §1

[9] = system: Echinochloa crus-galli (ECHCG); assay: Pre-emergence herbicidal glasshouse test on Echinochloa crus-galli; conditions: pre-emergence; 1000 g/h; evaluated after 13 days
Summary of the method: as §1

[10] = system: Ipomoea hederacea (IPOHE); assay: Post-emergence herbicidal glasshouse test on Ipomoea hederacea; conditions: post-emergence; 1000 g/h; evaluated after 13 days
Summary of the method: as §1

Setaria faberi (SETFA) [11] = assay: Pre-emergence herbicidal glasshouse test on Setaria faberi; conditions: pre-emergence; 1000 g/h; evaluated after 13 days
Summary of the method: as §1

[12] = system: Alopecurus myosuroides (ALOMY); assay: Post-emergence herbicidal glasshouse test on Alopecurus myosuroides; conditions: post-emergence; 1000 g/h; evaluated after 13 days
Summary of the method: as §1

Row | Compound | POST Application SETFA herbicidal damage (five point scale) (Setaria faberi (SETFA) [1]) | PRE Application SOLNI herbicidal damage (five point scale) (Solanum nigrum (SOLNI) [2]) | POST Application SOLNI herbicidal damage (five point scale) (Solanum nigrum (SOLNI) [3]) | PRE Application ALOMY herbicidal damage (five point scale) [4] | PRE Application IPOHE herbicidal damage (five point scale) [5] | PRE Application AMARE herbicidal damage (five point scale) [6] | POST Application ECHCG herbicidal damage (five point scale) [7] | POST Application AMARE herbicidal damage (five point scale) [8] | PRE Application ECHCG herbicidal damage (five point scale) [9] | POST Application IPOHE herbicidal damage (five point scale) [10] | PRE Application SETFA herbicidal damage (five point scale) (Setaria faberi (SETFA) [11]) | POST Application ALOMY herbicidal damage (five point scale) [12]
1 | Cn1ncc(-c2c(Cl)cccc2Cl)c(O)c1=O [Compound 1.118] | 1 (1=0-19% damage) | 1 (1=0-19% damage) | 3 (3=40-59% damage) | 1 (1=0-19% damage) | 1 (1=0-19% damage) | 1 (1=0-19% damage) | 2 (2=20-39% damage) | 4 (4=60-79% damage) | 1 (1=0-19% damage) | 2 (2=20-39% damage) | 1 (1=0-19% damage) | 1 (1=0-19% damage)
2 | O=c1c(O)c(-c2ccc(C(F)(F)F)cc2C(F)(F)F)cnn1C(F)F [Compound 1.006] | 1 (1=0-19% damage) | 3 (3=40-59% damage) | 5 (5=80-100% damage) | 2 (2=20-39% damage) | 3 (3=40-59% damage) | 5 (5=80-100% damage) | 1 (1=0-19% damage) | 5 (5=80-100% damage) | 2 (2=20-39% damage) | 5 (5=80-100% damage) | 1 (1=0-19% damage) | 1 (1=0-19% damage)
3 | Cn1ncc(-c2ccccc2S(C)(=O)=O)c(O)c1=O [Compound 1.046] | 5 (5=80-100% damage) | 5 (5=80-100% damage) | 5 (5=80-100% damage) | 5 (5=80-100% damage) | 1 (1=0-19% damage) | 5 (5=80-100% damage) | 5 (5=80-100% damage) | 5 (5=80-100% damage) | 5 (5=80-100% damage) | 5 (5=80-100% damage) | 3 (3=40-59% damage) | 5 (5=80-100% damage)
4 | CC(C)[S+]([O-])c1ccccc1-c1cnn(C)c(=O)c1O (stereo not drawn) [Compound 1.043] | 4 (4=60-79% damage) | 1 (1=0-19% damage) | 5 (5=80-100% damage) | 1 (1=0-19% damage) | 1 (1=0-19% damage) | 1 (1=0-19% damage) | 4 (4=60-79% damage) | 5 (5=80-100% damage) | 1 (1=0-19% damage) | 4 (4=60-79% damage) | 1 (1=0-19% damage) | 2 (2=20-39% damage)
